Results on four molecules are retold here after patent US5189157A, “Antibacterial cephalosporin compounds” (Hoffmann La Roche Inc., priority 1988, dated 1993).

What all share (type): cell-based
In test [1] the test system is E. cloaca P99. The experiment in a line: In Vitro MIC, Agar Dilution Method. The source says: (§1) The in vitro activity of the compounds of the present invention as measured by the Minimum Inhibitory Concentration in micrograms/ml utilizing the Agar Well Diffusion Method, Agar Dilution Method or Broth Dilution Method against a variety of Gram-positive and Gram-negative organisms, is as follows:
(§2) In Vitro MIC (μg/ml) Agar Dilution Method
For orientation: In agar dilution, organisms are placed on agar that contains the substance at set levels.

Test [2] relates to E. cloacae 9570A. The experiment in a line: In Vitro MIC, Agar Dilution Method. To be noted: Enterobacter cloacae.
Text: as §1, §2

Test [3] deals with E. coli 48. Briefly: In Vitro MIC, Agar Dilution Method. To be noted: Escherichia coli.
Text: as §1, §2

Test [4] has as its system K. pneumoniae A. The experiment in a line: In Vitro MIC, Agar Dilution Method. To be noted: Klebsiella pneumoniae.
Text: as §1, §2

Test [5] deals with P. aeruginosa 130. Briefly: In Vitro MIC, Agar Dilution Method. To be noted: Pseudomonas aeruginosa.
Text: as §1, §2

Test [6] concerns P. aeruginosa 185/H. The experiment in a line: In Vitro MIC, Agar Dilution Method. As to conditions: Pseudomonas aeruginosa.
Text: as §1, §2

In test [7] the test system is P. aeruginosa Stone 130. The experiment in a line: In Vitro MIC, Agar Dilution Method. To be noted: Pseudomonas aeruginosa, STONE130.
Text: as §1, §2

Test [8] concerns P. aureus Giorgid. Briefly: In Vitro MIC, Agar Dilution Method.
Text: as §1, §2

Test [9] has as its system P. mirabilis 190. The experiment in a line: In Vitro MIC, Agar Dilution Method. As to conditions: Proteus mirabilis.
Text: as §1, §2

Test [10] has as its system S. aureus 1059B. The experiment in a line: In Vitro MIC, Agar Dilution Method. As to conditions: Staphylococcus aureus.
Text: as §1, §2

Test [11] concerns S. aureus ATCC 25923. The experiment in a line: In Vitro MIC, Agar Dilution Method. To be noted: Staphylococcus aureus, ATCC25923.
Text: as §1, §2

For test [12], the system named is S. aureus Smith. The experiment in a line: In Vitro MIC, Agar Dilution Method. To be noted: Staphylococcus aureus.
Text: as §1, §2

Test [13] has as its system S. marscescens SM. Briefly: In Vitro MIC, Agar Dilution Method.
Text: as §1, §2

Test [14] relates to P. aeruginosa B. The experiment in a line: In Vitro MIC, Broth Dilution Method. To be noted: Pseudomonas aeruginosa. Background: In broth dilution the organism is exposed to a series of concentrations in liquid medium.
Test [15] concerns P. aeruginosa 1973E. Briefly: In Vitro MIC, Broth Dilution Method. As to conditions: Pseudomonas aeruginosa.
Text: as §1
(§3) In Vitro MIC (μg/ml) Broth Dilution Method

The subject of test [16] is P. aeruginosa 5700. The experiment in a line: In Vitro MIC, Broth Dilution Method. To be noted: Pseudomonas aeruginosa.
Text: as §1, §3

Test [17] has as its system P. aeruginosa 765. The experiment in a line: In Vitro MIC, Broth Dilution Method. As to conditions: Pseudomonas aeruginosa.
Text: as §1, §3

Test [18] concerns P. aeruginosa 8710. The experiment in a line: In Vitro MIC, Broth Dilution Method. To be noted: Pseudomonas aeruginosa.
Text: as §1, §3

Test [19] deals with P. aeruginosa K77/61. The experiment in a line: In Vitro MIC, Broth Dilution Method. To be noted: Pseudomonas aeruginosa, K77/61, read-out: In Vitro MIC.
Text: as §1, §3

Test [20] has as its system P. aeruginosa 8780. The experiment in a line: In Vitro MIC, Broth Dilution Method. As to conditions: Pseudomonas aeruginosa, 8780, read-out: In Vitro MIC.
In test [21] the test system is P. aeruginosa Stone 130. Briefly: In Vitro MIC, Broth Dilution Method. As to conditions: Pseudomonas aeruginosa, STONE130.
Test [22] has as its system P. aeruginosa ATCC 27853. Briefly: In Vitro MIC, Broth Dilution Method. To be noted: Pseudomonas aeruginosa, ATCC27853.
Test [23] deals with P. aeruginosa 503-56. Briefly: In Vitro MIC, Broth Dilution Method. As to conditions: Pseudomonas aeruginosa, 50356.
Text: as §1, §3

For test [24], the system named is P. aeruginosa K77/WT. The experiment in a line: In Vitro MIC, Broth Dilution Method. As to conditions: Pseudomonas aeruginosa.
Text: as §1, §3

For test [25], the system named is P. aeruginosa 6148B. The experiment in a line: In Vitro MIC, Broth Dilution Method. To be noted: Pseudomonas aeruginosa.

The structures appear in SMILES notation. Where a name gives a salt, the structure may show the parent alone.

What is called MIC is the lowest concentration found to suppress growth. Regarding `CC(=O)Oc1ccc(C(=O)OCC2=C(C(=O)O)N3C(=O)[C@@H](NC(=O)/C(=N\OCC(N)=O)c4csc(N)n4)[C@H]3SC2)cc1OC(C)=O` [Compound B, [6R-[6 alpha,7 beta(Z)]]-3-[[[3,4-bis(acetyloxy)benzoyl]oxy]methyl]-7-[[[2-amino-4-thiazolyl][(2-amino-2-oxoethoxy)imino]acetyl]amino]-8-oxo-5-thia-1-azabicyclo[4.2.0]oct-2-ene-2-carboxylic acid monosodium salt], the MIC in [1] is 32 µg/mL; in test [2], 1 µg/mL; in test [3], 0.031 µg/mL; in test [4] it was 0.125 µg/mL; in test [5], 4 µg/mL; in [6], 2 µg/mL. Further, the MIC in test [7] was 4 µg/mL; in test [8], 8 µg/mL; in [9], 0.063 µg/mL; in test [10] it was 4 µg/mL; in test [11] it was 2 µg/mL; in test [12], 4 µg/mL. Further, the MIC in [13] worked out at 1 µg/mL.
As to `CC(C)(O/N=C(\C(=O)N[C@@H]1C(=O)N2C(C(=O)O)=C(COC(=O)c3ccc(O)c(O)c3)CS[C@H]12)c1csc(N)n1)C(=O)O` [Compound C, [6R-[6 alpha,7 beta(Z)]]-7-[[(2-amino-4-thiazolyl)(1-carboxy-1-methylethoxy)-imino]acetyl]amino]-3-[[(3,4-dihydroxybenzoyl)oxy]methyl]-8-oxo-5-thia-1-azabicyclo[4.2.0]oct-2-ene-2-carboxylic acid disodium salt], the MIC in [14] is 0.125 µg/mL; in test [15], 2 µg/mL; in test [16], 2 µg/mL; in test [17], 8 µg/mL; in test [18], 0.063 µg/mL; in [19] it was over 0.008 µg/mL. The MIC in test [20] is over 0.008 µg/mL.
With `CO/N=C(\C(=O)N[C@@H]1C(=O)N2C(C(=O)O)=C(COC(=O)c3ccc(O)c(O)c3)CS[C@H]12)c1csc(N)n1` [Compound A, [6R-[6 alpha,7 beta(Z)]]-7-[[(2-amino-4-thiazolyl)(methoxyimino)acetyl]amino]-3-[[[(3,4-dihydroxyphenyl)carbonyl]oxy]methyl]-8-oxo-5-thia-1-azabicyclo[4.2.0]oct-2-ene-2-carboxylic acid monosodium salt], the MIC worked out at 2 µg/mL in test [14]; 2 µg/mL in test [21]; 8 µg/mL in [22]; 4 µg/mL in test [15]; 4 µg/mL in test [23]; 8 µg/mL in test [16]. Besides, the MIC stood at 4 µg/mL in [17]; 2 µg/mL in [18]; 1 µg/mL in test [24]; 0.5 µg/mL in test [20]; 2 µg/mL in test [25].
Molecule `CCN1CCN(C(=O)N[C@@H](C(=O)N[C@@H]2C(=O)N3C(C(=O)O)=C(COC(=O)c4ccc(O)c(O)c4)CS[C@H]23)c2ccccc2)C(=O)C1=O` [Compound D, [6R-[6 alpha,7 beta(R*)]]-7-[[[[(4-ethyl-2,4-dioxo-1-piperazinyl)carbonyl]amino]phenylacetyl]amino]-3-[[(3,4-dihydroxy)benzoyl]oxy]-methyl]-8-oxo-5-thia-1-azabicyclo(4.2.0)oct-2-ene-2-carboxylic acid monosodium salt] returned an MIC in test [18] of 0.125 µg/mL.
